Experimental data published in ChEMBL document CHEMBL1201862, “PubChem BioAssay data set” (2004).
The source made the active and inactive calls.

Key:
Cannabinoid receptor 2 [1] = target: T1, Cannabinoid receptor 2 (Homo sapiens, UniProt P34972); assay: SAR analysis of agonists of the Cannabinoid Receptor 2 using an Image-Based Assay - Set 2. [Related pubchem assays (depositor defined):AID1961, AID1965]; format: functional
[2] = target: T2, G-protein coupled receptor 35 (Homo sapiens, UniProt Q9HC97); assay: SAR analysis of Agonists of the GPR35 Receptor using an Image-Based Assay - Set 3. [Related pubchem assays (depositor defined):AID1961, AID1965]; format: functional
T2 sequence (Q9HC97 whole entry): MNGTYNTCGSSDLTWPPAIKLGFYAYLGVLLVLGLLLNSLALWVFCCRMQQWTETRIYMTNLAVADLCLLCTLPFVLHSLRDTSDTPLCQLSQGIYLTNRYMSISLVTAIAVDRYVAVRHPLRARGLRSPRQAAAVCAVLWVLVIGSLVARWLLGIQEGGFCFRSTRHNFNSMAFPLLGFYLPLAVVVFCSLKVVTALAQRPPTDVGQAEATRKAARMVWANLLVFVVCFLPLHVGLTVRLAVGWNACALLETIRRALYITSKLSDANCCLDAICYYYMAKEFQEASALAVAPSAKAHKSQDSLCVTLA

[3] = target: G-protein coupled receptor 55 (Homo sapiens, UniProt Q9Y2T6); assay: SAR analysis of selective Agonists of GPR55 using an Image-Based Assay - Set 2. [Related pubchem assays (depositor defined):AID1961, AID1965]; format: functional
Cannabinoid receptor 2 [4] = target: T1, Cannabinoid receptor 2; assay: SAR analysis of antagonists of the Cannabinoid Receptor 2 using an Image-Based Assay - Set 2. [Related pubchem assays (depositor defined):AID1961, AID1965]; format: functional
[5] = target: T2, G-protein coupled receptor 35; assay: SAR analysis of Antagonists of the GPR35 Receptor using an Image-Based Assay - Set 4. [Related pubchem assays (depositor defined):[…]]; format: functional
Cannabinoid receptor 1 [6] = target: T3, Cannabinoid receptor 1 (Homo sapiens, UniProt P21554); assay: SAR analysis of antagonists of the Cannabinoid Receptor 1 using an Image-Based Assay - Set 3. [Related pubchem assays (depositor defined):AID1961, AID1965]; format: functional
T3 sequence (P21554 whole entry): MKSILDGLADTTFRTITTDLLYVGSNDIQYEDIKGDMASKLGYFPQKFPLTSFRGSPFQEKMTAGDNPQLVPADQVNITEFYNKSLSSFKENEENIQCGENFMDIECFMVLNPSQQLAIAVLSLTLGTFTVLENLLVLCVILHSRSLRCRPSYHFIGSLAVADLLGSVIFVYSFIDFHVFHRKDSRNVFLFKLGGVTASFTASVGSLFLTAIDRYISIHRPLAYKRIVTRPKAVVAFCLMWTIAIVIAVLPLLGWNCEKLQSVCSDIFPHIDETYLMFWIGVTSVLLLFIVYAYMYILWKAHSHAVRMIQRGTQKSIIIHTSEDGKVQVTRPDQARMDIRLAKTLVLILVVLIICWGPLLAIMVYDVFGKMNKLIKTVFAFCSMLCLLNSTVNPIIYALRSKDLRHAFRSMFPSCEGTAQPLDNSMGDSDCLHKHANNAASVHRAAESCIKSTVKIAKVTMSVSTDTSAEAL

Cannabinoid receptor 1 [7] = target: T3, Cannabinoid receptor 1; assay: SAR analysis of agonists of the Cannabinoid Receptor 1 using an Image-Based Assay - Set 3. [Related pubchem assays (depositor defined):AID1961, AID1965]; format: functional
[8] = target: T4, E3 ubiquitin-protein ligase XIAP (Homo sapiens, UniProt P98170); assay: Counter Screen using XIAP-Bir3 for Chemical Antagonists of Bir1/2 domains of IAP-family anti-apoptotic proteins. [Related pubchem assays (depositor defined):AID1018, AID1449, AID1514, AID1638, AID1749, AID1750, AID488957, AID488963]
T4 sequence (P98170 whole entry): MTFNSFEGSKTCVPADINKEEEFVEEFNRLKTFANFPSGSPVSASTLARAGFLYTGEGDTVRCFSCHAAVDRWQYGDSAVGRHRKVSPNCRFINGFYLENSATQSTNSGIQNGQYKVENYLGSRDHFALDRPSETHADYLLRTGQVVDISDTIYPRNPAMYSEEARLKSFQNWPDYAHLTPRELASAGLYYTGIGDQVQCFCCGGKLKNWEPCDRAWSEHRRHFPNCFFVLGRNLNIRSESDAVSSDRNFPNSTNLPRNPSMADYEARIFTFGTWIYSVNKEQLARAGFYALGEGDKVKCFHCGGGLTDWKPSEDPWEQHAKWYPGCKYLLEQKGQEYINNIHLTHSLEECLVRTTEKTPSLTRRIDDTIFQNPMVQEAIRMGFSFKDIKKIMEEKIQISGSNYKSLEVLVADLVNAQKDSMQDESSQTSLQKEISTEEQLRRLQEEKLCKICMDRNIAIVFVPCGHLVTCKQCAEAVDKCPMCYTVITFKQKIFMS

[9] = target: T4, E3 ubiquitin-protein ligase XIAP; assay: small molecules displacing peptide from XIAP – biochemical, IAP family, fluorescence polarization (AID 1018); format: functional
[10] = target: T5, Sphingosine 1-phosphate receptor 4 (Homo sapiens, UniProt O95977); assay: Fluorescence dose response cell-based high throughput screening assay for agonists of the Sphingosine 1-Phosphate Receptor 4 (S1P4). [Related pubchem assays: 1509 (Primary screen.), 1523 (Confirmation screen in triplicates.)]; format: functional
T5 sequence (O95977 whole entry): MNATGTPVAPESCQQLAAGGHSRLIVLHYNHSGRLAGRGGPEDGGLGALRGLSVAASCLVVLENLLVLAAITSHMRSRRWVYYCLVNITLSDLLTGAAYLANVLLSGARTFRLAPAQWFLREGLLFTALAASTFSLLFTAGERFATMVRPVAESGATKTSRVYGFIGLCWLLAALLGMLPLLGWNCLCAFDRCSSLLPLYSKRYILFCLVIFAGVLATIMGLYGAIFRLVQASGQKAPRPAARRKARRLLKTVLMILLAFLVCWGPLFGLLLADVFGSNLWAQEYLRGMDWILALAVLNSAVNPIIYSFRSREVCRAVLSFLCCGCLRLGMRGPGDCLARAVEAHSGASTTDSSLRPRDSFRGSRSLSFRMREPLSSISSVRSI

[11] = target: Sphingosine 1-phosphate receptor 1 (Homo sapiens, UniProt P21453); assay: Fluorescence-based counterscreen assay for S1P4 agonists: Cell-based dose response high throughput screening assay to identify agonists of the Sphingosine 1-Phosphate Receptor 1 (S1P1). [Related pubchem assays (depositor defined):AID1509, AID1523, AID1801, AID463107, AID463118, AID463119, AID463122, AID463123, AID463129, AID463225, AID504400, AID504460]; format: functional
Chain of Sphingosine 1-phosphate receptor 1 (P21453 whole entry): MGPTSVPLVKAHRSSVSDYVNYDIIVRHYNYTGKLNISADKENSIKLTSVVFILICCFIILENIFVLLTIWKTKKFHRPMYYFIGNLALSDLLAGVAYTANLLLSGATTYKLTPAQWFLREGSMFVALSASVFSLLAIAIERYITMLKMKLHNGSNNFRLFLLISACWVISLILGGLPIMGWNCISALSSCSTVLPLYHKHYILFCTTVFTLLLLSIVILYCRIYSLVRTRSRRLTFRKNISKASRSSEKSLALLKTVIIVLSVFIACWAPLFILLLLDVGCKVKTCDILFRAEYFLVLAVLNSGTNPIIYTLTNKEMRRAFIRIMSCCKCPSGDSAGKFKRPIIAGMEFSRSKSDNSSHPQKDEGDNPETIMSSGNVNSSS

[12] = target: T6, Delta-type opioid receptor (Homo sapiens, UniProt P41143); assay: DOR agonists, SAR follow-up, image-based (AID 2370); format: functional
T6 sequence (P41143 whole entry): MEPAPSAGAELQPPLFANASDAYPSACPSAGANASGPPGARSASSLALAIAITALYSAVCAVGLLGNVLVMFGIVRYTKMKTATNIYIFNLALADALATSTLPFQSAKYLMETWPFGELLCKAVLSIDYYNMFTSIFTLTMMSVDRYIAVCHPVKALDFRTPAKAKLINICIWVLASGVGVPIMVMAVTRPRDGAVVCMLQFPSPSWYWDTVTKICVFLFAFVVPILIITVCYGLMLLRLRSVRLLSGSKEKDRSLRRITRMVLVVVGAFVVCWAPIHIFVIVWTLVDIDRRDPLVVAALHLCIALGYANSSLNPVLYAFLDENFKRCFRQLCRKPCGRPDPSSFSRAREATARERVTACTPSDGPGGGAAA

[13] = target: T7, Tyrosine-protein phosphatase non-receptor type 7 (Homo sapiens, UniProt P35236); assay: SAR analysis of chemical inhibitors of HePTP using a Fluorescent assay - Set 2. [Related pubchem assays (depositor defined):AID1059, AID1077, AID1661, AID2085, AID521]; format: functional
T7 sequence (P35236 whole entry): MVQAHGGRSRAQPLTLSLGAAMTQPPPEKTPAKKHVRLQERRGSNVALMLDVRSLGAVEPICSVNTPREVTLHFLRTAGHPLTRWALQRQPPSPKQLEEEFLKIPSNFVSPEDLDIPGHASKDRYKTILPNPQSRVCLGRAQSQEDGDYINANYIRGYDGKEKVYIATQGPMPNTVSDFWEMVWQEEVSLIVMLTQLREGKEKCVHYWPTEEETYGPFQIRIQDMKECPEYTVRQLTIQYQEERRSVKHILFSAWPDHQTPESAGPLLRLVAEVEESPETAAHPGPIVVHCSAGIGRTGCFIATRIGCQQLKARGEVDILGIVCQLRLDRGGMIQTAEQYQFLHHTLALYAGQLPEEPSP

[14] = target: T8, Kappa-type opioid receptor (Homo sapiens, UniProt P41145); assay: kappa opioid receptor blockers, image-based, SAR follow-up (AID 2348); format: functional
T8 sequence (P41145 whole entry): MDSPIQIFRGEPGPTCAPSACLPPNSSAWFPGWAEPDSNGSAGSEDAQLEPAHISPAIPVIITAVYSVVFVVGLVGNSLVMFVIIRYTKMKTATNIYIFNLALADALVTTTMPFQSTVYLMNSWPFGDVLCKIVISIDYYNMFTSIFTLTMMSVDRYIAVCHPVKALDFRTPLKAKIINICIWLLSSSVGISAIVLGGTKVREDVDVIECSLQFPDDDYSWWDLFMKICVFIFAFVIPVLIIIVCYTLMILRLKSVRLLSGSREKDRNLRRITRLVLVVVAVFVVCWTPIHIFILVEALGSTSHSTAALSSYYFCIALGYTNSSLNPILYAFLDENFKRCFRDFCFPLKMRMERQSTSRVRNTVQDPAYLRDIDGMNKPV

[15] = target: T8, Kappa-type opioid receptor; assay: kappa opioid receptor blockers, cell-based, luminescence, beta-arrestin, SAR follow-up (AID 2285); format: functional
[16] = target: T8, Kappa-type opioid receptor; assay: kappa opioid receptor activation potency – imaging, image-based, SAR follow-up (AID 2359); format: functional
Mu-type opioid receptor [17] = target: T9, Mu-type opioid receptor (Homo sapiens, UniProt P35372); assay: mu opioid receptor activators, image-based, SAR follow-up (AID 2352); format: functional
T9 sequence (P35372 whole entry): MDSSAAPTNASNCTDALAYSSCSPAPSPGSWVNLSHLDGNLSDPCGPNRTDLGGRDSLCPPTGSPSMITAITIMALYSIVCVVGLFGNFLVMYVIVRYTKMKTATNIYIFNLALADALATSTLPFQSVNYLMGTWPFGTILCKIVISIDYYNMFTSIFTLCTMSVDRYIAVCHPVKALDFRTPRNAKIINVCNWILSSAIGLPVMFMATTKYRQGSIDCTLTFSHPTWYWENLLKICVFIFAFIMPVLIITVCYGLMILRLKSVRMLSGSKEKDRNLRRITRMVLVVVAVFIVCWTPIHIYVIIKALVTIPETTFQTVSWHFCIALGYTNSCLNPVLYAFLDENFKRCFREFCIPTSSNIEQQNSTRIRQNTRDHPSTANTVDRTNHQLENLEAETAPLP

[18] = target: T6, Delta-type opioid receptor; assay: delta opioid receptor blockers – image-based, SAR follow-up (AID 2357); format: functional
[19] = target: T10, Dual specificity protein phosphatase 3 (Homo sapiens, UniProt P51452); assay: SAR VHR1 Fluorescent Assay for In Vitro dose response studies Set 2. [Related pubchem assays (depositor defined):AID1654, AID1661, AID1878]; format: functional
T10 sequence (P51452 whole entry): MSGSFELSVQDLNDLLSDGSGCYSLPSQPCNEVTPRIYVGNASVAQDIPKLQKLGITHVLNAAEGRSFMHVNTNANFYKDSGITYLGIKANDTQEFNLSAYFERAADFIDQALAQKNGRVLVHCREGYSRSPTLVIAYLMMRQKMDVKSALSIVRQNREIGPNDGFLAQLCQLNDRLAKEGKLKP

Mu-type opioid receptor [20] = target: T9, Mu-type opioid receptor; assay: mu opioid receptor blockers – image-based, SAR follow-up (AID 2420); format: functional;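 further: compounds added before stimulation of receptor with agonist DAMGO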
[21] = target: Voltage-dependent T-type calcium channel subunit alpha-1H (Homo sapiens, UniProt O95180); assay: human CACNA1H calcium influx blockade – cell-based, synthetic library set 2, HEK293 HH8, Fluo-4, SAR follow-up (AID 493023); format: functional
[22] = target: Sphingosine 1-phosphate receptor 2 (Homo sapiens, UniProt O95136); assay: Late stage counterscreen assay for S1P4 antagonists: Fluorescence dose response cell-based screening assay for antagonists of the Sphingosine 1-Phosphate Receptor 2 (S1P2). [Related pubchem assays (depositor defined):AID1510, AID1524, AID1692, AID1853, AID2332, AID489009, AID489017]; format: functional
Chain of Sphingosine 1-phosphate receptor 2 (O95136 whole entry): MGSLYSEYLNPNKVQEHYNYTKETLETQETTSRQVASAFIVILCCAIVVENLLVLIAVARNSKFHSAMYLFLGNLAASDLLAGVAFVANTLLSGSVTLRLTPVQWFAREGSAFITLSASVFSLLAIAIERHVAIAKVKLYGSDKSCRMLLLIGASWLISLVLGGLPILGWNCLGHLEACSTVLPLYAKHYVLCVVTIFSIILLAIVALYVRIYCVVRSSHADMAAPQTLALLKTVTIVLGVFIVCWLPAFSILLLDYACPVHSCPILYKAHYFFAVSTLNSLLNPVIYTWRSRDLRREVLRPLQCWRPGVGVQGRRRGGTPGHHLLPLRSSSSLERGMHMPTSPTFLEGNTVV

[23] = target: Sphingosine 1-phosphate receptor 3 (Homo sapiens, UniProt Q99500); assay: Late stage counterscreen assay for S1P4 antagonists: Fluorescence dose response cell-based screening assay for antagonists of the Sphingosine 1-Phosphate Receptor 3 (S1P3). [Related pubchem assays (depositor defined):AID1510, AID1524, AID1692, AID1853, AID2332, AID489009, AID489017]; format: functional
[24] = target: Sphingosine 1-phosphate receptor 5 (Homo sapiens, UniProt Q9H228); assay: Late stage counterscreen assay for S1P4 antagonists: Fluorescence dose response cell-based screening assay for antagonists of the Sphingosine 1-Phosphate Receptor 5 (S1P5). [Related pubchem assays (depositor defined):AID1510, AID1524, AID1692, AID1853, AID2332, AID489009, AID489017]; format: functional
[25] = target: Signal transducer and activator of transcription 1-alpha/beta (Homo sapiens, UniProt P42224); assay: STAT3 blockade with qPCR and toxicity readouts – cell-based, STAT1 panel, cytotoxicity, late-stage follow-up, panel member STAT1 Inhibition (AID 2078)
[26] = target: Signal transducer and activator of transcription 3 (Homo sapiens, UniProt P40763); assay: STAT3 blockade with qPCR and toxicity readouts – cell-based, STAT1 panel, cytotoxicity, late-stage follow-up, panel member STAT3 Inhibition (AID 2078)
[27] = target: T5, Sphingosine 1-phosphate receptor 4; assay: Late-stage fluorescence dose response cell-based assay to identify agonists of the Sphingosine 1-Phosphate Receptor 4 (S1P4): purchased compounds EC50. [Related pubchem assays (depositor defined):AID1509, AID1523, AID1563, AID1686, AID1701, AID1801]; format: functional
[28] = target: Peroxisome proliferator-activated receptor gamma (Homo sapiens, UniProt P37231); assay: PPARg transcriptional activation, reporter cells – cell-based, luminescence, assay provider, dose response (AID 504447); format: functional
[29] = target: Dual specificity protein phosphatase 6 (Rattus norvegicus, UniProt Q64346); assay: inhibition of rat DUSP6 enzyme activity – biochemical, in vitro, primary screen (AID 425)
Chain of Dual specificity protein phosphatase 6 (Q64346 whole entry): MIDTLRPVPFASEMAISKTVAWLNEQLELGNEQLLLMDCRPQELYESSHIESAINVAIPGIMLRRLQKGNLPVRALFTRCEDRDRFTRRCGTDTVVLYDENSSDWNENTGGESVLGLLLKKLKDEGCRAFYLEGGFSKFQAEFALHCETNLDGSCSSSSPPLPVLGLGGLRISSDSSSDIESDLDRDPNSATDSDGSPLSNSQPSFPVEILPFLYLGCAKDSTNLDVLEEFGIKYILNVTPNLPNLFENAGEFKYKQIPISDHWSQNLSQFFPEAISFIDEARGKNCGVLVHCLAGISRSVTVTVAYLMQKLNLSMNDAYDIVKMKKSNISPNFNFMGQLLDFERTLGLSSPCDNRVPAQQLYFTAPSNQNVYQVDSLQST

[30] = target: T10, Dual specificity protein phosphatase 3; assay: VHR1 phosphatase inhibitors, biochemical (AID 1878)
[31] = target: T10, Dual specificity protein phosphatase 3; assay: VHR1 phosphatase inhibitors, primary screen, biochemical, absorbance, uHTS (AID 1654)
Coagulation factor XII = Coagulation factor XII (Homo sapiens, UniProt P00748); format: functional;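 further: activated factor XIIa alpha cleaving a fluorogenic AMC peptide substrate; inhibitor potency from loss of enzyme activity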
Chain of Coagulation factor XII (P00748 20-372 limits assumed): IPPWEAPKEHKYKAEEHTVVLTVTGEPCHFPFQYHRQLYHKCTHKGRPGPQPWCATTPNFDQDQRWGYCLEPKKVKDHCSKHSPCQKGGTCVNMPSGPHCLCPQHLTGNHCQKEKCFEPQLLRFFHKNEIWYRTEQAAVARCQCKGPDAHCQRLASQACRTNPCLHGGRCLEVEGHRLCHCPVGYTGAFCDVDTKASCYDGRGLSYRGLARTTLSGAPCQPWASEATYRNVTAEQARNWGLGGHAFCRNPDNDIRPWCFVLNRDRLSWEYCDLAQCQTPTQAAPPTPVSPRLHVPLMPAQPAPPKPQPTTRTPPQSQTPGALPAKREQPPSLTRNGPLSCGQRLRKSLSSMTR
Chain of Coagulation factor XII (P00748 373-615 limits assumed): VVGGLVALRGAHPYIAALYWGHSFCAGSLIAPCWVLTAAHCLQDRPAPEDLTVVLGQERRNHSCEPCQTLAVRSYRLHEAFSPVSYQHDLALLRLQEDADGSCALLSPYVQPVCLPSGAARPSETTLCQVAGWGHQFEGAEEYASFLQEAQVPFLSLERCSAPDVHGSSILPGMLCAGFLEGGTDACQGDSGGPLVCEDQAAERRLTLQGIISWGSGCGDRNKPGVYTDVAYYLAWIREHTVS

T1 sequence (P34972 whole entry): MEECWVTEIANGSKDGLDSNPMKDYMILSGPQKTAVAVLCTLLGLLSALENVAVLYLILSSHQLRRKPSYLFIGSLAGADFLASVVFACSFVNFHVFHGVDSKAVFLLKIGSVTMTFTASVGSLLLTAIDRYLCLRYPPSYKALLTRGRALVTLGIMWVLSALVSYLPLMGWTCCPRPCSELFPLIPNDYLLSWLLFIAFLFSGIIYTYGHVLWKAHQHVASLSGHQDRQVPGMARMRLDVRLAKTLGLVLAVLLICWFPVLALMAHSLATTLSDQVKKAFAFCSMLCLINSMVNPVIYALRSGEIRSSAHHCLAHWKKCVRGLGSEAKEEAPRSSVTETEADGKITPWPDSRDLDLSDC

## COc1ccc(S(=O)(=O)N2CCOCC2)cc1NC(=O)c1ccc(-n2nc(C)cc2C)cc1
Cannabinoid receptor 2 [1]
  EC50: > 32 µM (inactive)
[2]
  EC50: > 32 µM (inactive)
[3]
  EC50: 0.831 µM (active)
Cannabinoid receptor 2 [4]
  IC50: > 32 µM (inactive)
[5]
  IC50: > 32 µM (inactive)
Cannabinoid receptor 1 [6]
  IC50: 20.3 µM (inactive)
Cannabinoid receptor 1 [7]
  EC50: > 32 µM (inactive)

## CCNC(=O)CSc1nnc(-c2cccc(S(=O)(=O)N(CC)CC)c2)n1CCc1ccccc1
[8]
  IC50: > 100 µM (inactive)
[9]
  IC50: > 100 µM (not active)

## COc1cccc(C2CN(c3ccc(F)cc3F)N=C2c2cccs2)c1OC (configuration not stated)
[10]
  EC50: 11.1 µM (not active)
[11]
  EC50: 7.49 µM (active)

## Cc1ccc(NC(=S)NC(NC(=O)OCc2ccccc2)C(Cl)(Cl)Cl)cc1 (configuration not stated)
[12]
  EC50: > 32 µM (inactive)
[13]
  IC50: > 100 µM (inactive)
[14]
  IC50: > 32 µM (inactive)
[15]
  IC50: > 10 µM (inactive)
[16]
  EC50: > 32 µM (inactive)
Mu-type opioid receptor [17]
  EC50: > 32 µM (inactive)
[18]
  IC50: > 32 µM (inactive)
[19]
  IC50: > 100 µM (inactive)
Mu-type opioid receptor [20]
  IC50: > 32 µM (inactive)

## CC(C)(C)CCN1CCC[C@H](NC(=O)COc2ccccc2Cl)C1
[21]
  EC50: 10 µM (active)

## Cc1cccc(C)c1NC(=O)c1ccc(-c2cc(Cl)ccc2Cl)o1
[22]
  IC50: 7.88 µM (active)
[23]
  IC50: 19.5 µM (inactive)
[24]
  IC50: > 25 µM (inactive)

## c1ccc(Cc2nc(N3CCC(Cc4ccccc4)CC3)c3c4c(sc3n2)CCCC4)cc1
[25]
  IC50: > 55.7 µM (inactive)
[26]
  IC50: > 55.7 µM (inactive)

## Cc1ccc(OCc2ccc(Cl)cc2)c([N+](=O)[O-])n1
[27]
  EC50: > 50 µM (inactive)

## O=C(Nc1ccccc1Cl)C(=O)c1cn(CC(=O)N2CCOCC2)c2ccccc12
[28]
  EC50: 2 µM (active)

## O=C(O)C1CCC(N2C(=O)c3c(Cl)c(Cl)c(Cl)c(Cl)c3C2=O)CC1 (configuration not stated)
[29]
  IC50: 113 µM (not active)
[30]
  IC50: 3.6 µM (active)
[31]
  IC50: 5.1 µM (active)

## CC(C(=O)Oc1ccc2c(c1)OCO2)N1C(=O)c2ccccc2C1=O (configuration not stated)
Coagulation factor XII
  IC50: > 50 µM (inactive)
